These results are taken from patent US5624687A, “Quick-dissolution solid preparation” (Yamanouchi Pharmaceutical Co., Ltd., priority 1991, dated 1997).

Structures can show the parent of a compound that is named as a salt.

The data set in a line: Solubility determination of bulk substance in test solutions of various pH (37° C., 1 hour). The class given is physicochemical. The following applies: for solubility at 1 h: test solution. How it is done: Emonapride hydrochloride (0.05-5 g) was added to 10 ml portions of test solutions of various pH and each mixture was shaken at 37° C. for 1 hour, at the end of which it was filtered through Nucripore Membrane (pore size 0.6 μm). A definite portion of the filtrate was taken out and diluted with acetate buffer (pH 3.0) for use as a sample solution.
Separately, about 0.1 g of emonapride hydrochloride was accurately weighed out and dissolved in methanol to make exactly 100 ml. One milliliter portion of this solution was accurately taken out and diluted with acetate buffer (pH 3.0) to make exactly 100 ml for use as the standard solution. For each of the test solution and the standard solution, the absorbance at 313 nm was measured by absorption spectrometry and the solubility was determined.
In the preparation of the test solutions, JP Test Solution 1 was used for pH 1.2, acetate buffer (S.phi.rensen buffer) for pH 2.0-5.0, phosphate buffer (Clark-Lubs buffer) for pH 6.0-7.6 and JP Test Solution 2 for pH 6.8.

Consider `CNc1cc(OC)c(C(=O)NC2CCN(Cc3ccccc3)C2C)cc1Cl` (centres unmarked) [Emonapride, N-(1-Benzyl-2-methylpyrrolidin-3-yl)-5-chloro-2-methoxy-4-methylaminobenzamide], for which the “solubility (statement in the description)” value (conditions over pH 4) is reported as “drastically insoluble”.

For `CNc1cc(OC)c(C(=O)NC2CCN(Cc3ccccc3)C2C)cc1Cl` (centres unmarked) [emonapride hydrochloride], the “solubility change with pH” value (as the pH exceeded 4, 37° C.) is recorded as “decreased sharply”. Besides, under “bulc substance, from solubility at various pH”, the “pH dependence of dissolution” value is recorded as “pH-dependent”. In addition, the solubility at 1 h (pH≤4, 37° C.) is at least 5000 µg/mL and the solubility at 1 h (pH≥6.8, 37° C.) was at most 10 µg/mL.
